From patent publication US20250353839A1, “POLYMORPH OF BENZO[C]CHROMAN COMPOUND, PREPARATION METHOD THEREFOR AND USE THEREOF” (Reistone Biopharma Company Limited, priority 2022, published 2025) come the findings set out here.

Series [1] is described as follows: Dynamic vapor sorption (DVS) hygroscopicity, with XRPD before and after. The format is physicochemical. As to conditions: for weight gain by hygroscopicity: DVS; for crystal form before and after DVS detection (XRPD): XRPD redetermined after DVS. On the procedure: (§1) Test conditions for the instruments used in experiments of the present disclosure: • 1. X-ray Powder Diffraction, XRPD • Instrument type: Malver Panalytical Aeris X-ray powder diffractometer • Ray: monochromatic Cu-Kα ray (λ=1.54188) • Scanning mode: θ/2θ, Scanning range (2θ range): 3.5-50° • Voltage: 40 kV, Electric current: 15 mA • 2. Differential Scanning calorimetry, DSC • Instrument type: TA DSC250 • Purge gas: Nitrogen; Nitrogen purge rate: 50 mL/min • Heating rate: 10° C./min • Temperature range: 25° C.-300° C. • 3. Thermogravimetric Analysis, TGA • Instrument type: TA TGA550 • Purge gas: Nitrogen; Nitrogen purge rate: 20 ml/min • Heating rate: 10° C./min • Temperature range: 30° C.-350° C. 4. Dynamic vapor sorption (DVS) • Using SMS Intrinsic PLUS, the detection is performed at 25° C., with humidity change of 50%-0%-90% with a step size of 10%, in which the criteria for judging is that the mass change dM/dT for each gradient is less than 0.002%, TMAX is 360 min, and two cycles are performed. • 5. High performance liquid chromatography (HPLC) described in the stability test of the crystal forms of the present disclosure is determined on Agilent 1260 Infinity II.

Series [2] in a line: Stability (influence factor) test of free base crystal form E, HPLC and XRPD. The format is physicochemical. As to conditions: for related substances (impurities) by HPLC versus initial: different days. On the procedure: as §1
In the content detection method by the high performance liquid chromatography described in the present disclosure, HPLC conditions are as follows: chromatographic column, Agilent Eclipse Plus C18 4.6 mm*150 mm, 3.5 μm; mobile phase, A-10 mmol/L solution of sodium dihydrogen phosphate (pH 8.0), and B-ACN; flow rate, 1.0 ml/min; wavelength, 210 nm.
In the related substances detection method by the high performance liquid chromatography described in Example 8 of the present disclosure, HPLC conditions are as follows: chromatographic column, Agilent Eclipse Plus C18 4.6 mm*150 mm, 3.5 μm; mobile phase, A-10 mmol/L solution of ammonium acetate, and B-ACN; flow rate, 1.0 ml/min; wavelength, 210 nm.
It is determined whether temperature and humidity have an influence on the stability of free base crystal form E of the compound of formula I.
The free base crystal form E was placed in a stabilizing chamber […] and subjected to influence factor tests using a series of temperature and humidity combinations. After being placed for different days under light and various temperature and humidity conditions, the samples were taken out. The related substances (impurities) were detected by high performance liquid chromatography.
The samples taken out on the last day under light and various temperature and humidity conditions were subjected to XRPD detection, showing that the free base crystal form E had no change and had good stability.

Where [3] appears, read: accelerated experimental conditions (80% RH).
The mark [4] stands for this setting: normal storage conditions (25° C., 60% RH).

With `N#Cc1ccc2c(c1)COc1cc(C[C@@H](C#N)NC(=O)[C@@H]3CNCCCO3)c(F)cc1-2` [crystal form A], the “weight gain by hygroscopicity” value in series [1] (setting [3]) was “approximately 5.39%”. Besides, the “crystal form before and after DVS detection (XRPD)” value in series [1] is on record as “did not change”.
Consider `N#Cc1ccc2c(c1)COc1cc(C[C@@H](C#N)NC(=O)[C@@H]3CNCCCO3)c(F)cc1-2` [crystal form B], for which the results for the “weight gain by hygroscopicity” value in series [1] (setting [3]), in series [1] (extreme conditions (90% RH)) and in series [1] (setting [4]) were “approximately 1.60%”, “approximately 3.87%” and “approximately 0.93%”, respectively. For the same compound, in series [1], the “crystal form before and after DVS detection (XRPD)” value is on record as “did not change”.
In the case of `N#Cc1ccc2c(c1)COc1cc(C[C@@H](C#N)NC(=O)[C@@H]3CNCCCO3)c(F)cc1-2` [crystal form C], the results for the “weight gain by hygroscopicity” value in series [1] (setting [3]), in series [1] (extreme conditions (90% RH)) and in series [1] (setting [4]) were “approximately 0.89%”, “approximately 1.16%” and “approximately 0.65%”, respectively. For the same compound, the “crystal form before and after DVS detection (XRPD)” value in series [1] is “did not change”.
Taken in the same sequence, the figures for `N#Cc1ccc2c(c1)COc1cc(C[C@@H](C#N)NC(=O)[C@@H]3CNCCCO3)c(F)cc1-2` [crystal form D] were “approximately 0.76%”, “approximately 0.84%”, “approximately 0.64%” and “did not change”.
Take `N#Cc1ccc2c(c1)COc1cc(C[C@@H](C#N)NC(=O)[C@@H]3CNCCCO3)c(F)cc1-2` [free base crystal form E]: the “Content (%) of the compound of formula I” value in series [2] (0 day) is recorded as 97.45%; in series [2] (0.5 ICH (light)) it was 96.07%; in series [2] (1 ICH (light)), 94.52%; in series [2] (25° C. RH 92%-1 week) it was 97.29%; in series [2] (25° C. RH 92%-2 weeks), 97.5%; in series [2] (40° C. RH 75%-1 week) it was 97.36%. The “Content (%) of the compound of formula I” value was found to be 97.51% in series [2] (40° C. RH 75%-2 weeks), 97.25% in series [2] (60° C.-1 week) and 97.55% in series [2] (60° C.-2 weeks). Besides, the “related substances (impurities) by HPLC versus initial” value in series [2] (light conditions) is on record as “impurities increased”; in series [2] (various temperature and humidity conditions), “no significant increase or only a slight increase”. In series [2] (samples of the last day under light and various temperature and humidity conditions), the “crystal form after stability test (XRPD)” value is on record as “had no change”.
